Experimental findings from patent US20060079696A1, “Substituted compounds derived from N-(benzyl)phenylacetamide, preparation and uses” (GENFIT, priority 2004, published 2006) are described below.

This test deals with T1, ATP-dependent potassium channels (K+ATP) (Rattus norvegicus, UniProt Q09429).
T1 construct: the potassium channels derive from a rat's cerebral cortex; tissue CEREP; host or cells: rat cerebral cortex
T1 sequence (Q09429 whole entry): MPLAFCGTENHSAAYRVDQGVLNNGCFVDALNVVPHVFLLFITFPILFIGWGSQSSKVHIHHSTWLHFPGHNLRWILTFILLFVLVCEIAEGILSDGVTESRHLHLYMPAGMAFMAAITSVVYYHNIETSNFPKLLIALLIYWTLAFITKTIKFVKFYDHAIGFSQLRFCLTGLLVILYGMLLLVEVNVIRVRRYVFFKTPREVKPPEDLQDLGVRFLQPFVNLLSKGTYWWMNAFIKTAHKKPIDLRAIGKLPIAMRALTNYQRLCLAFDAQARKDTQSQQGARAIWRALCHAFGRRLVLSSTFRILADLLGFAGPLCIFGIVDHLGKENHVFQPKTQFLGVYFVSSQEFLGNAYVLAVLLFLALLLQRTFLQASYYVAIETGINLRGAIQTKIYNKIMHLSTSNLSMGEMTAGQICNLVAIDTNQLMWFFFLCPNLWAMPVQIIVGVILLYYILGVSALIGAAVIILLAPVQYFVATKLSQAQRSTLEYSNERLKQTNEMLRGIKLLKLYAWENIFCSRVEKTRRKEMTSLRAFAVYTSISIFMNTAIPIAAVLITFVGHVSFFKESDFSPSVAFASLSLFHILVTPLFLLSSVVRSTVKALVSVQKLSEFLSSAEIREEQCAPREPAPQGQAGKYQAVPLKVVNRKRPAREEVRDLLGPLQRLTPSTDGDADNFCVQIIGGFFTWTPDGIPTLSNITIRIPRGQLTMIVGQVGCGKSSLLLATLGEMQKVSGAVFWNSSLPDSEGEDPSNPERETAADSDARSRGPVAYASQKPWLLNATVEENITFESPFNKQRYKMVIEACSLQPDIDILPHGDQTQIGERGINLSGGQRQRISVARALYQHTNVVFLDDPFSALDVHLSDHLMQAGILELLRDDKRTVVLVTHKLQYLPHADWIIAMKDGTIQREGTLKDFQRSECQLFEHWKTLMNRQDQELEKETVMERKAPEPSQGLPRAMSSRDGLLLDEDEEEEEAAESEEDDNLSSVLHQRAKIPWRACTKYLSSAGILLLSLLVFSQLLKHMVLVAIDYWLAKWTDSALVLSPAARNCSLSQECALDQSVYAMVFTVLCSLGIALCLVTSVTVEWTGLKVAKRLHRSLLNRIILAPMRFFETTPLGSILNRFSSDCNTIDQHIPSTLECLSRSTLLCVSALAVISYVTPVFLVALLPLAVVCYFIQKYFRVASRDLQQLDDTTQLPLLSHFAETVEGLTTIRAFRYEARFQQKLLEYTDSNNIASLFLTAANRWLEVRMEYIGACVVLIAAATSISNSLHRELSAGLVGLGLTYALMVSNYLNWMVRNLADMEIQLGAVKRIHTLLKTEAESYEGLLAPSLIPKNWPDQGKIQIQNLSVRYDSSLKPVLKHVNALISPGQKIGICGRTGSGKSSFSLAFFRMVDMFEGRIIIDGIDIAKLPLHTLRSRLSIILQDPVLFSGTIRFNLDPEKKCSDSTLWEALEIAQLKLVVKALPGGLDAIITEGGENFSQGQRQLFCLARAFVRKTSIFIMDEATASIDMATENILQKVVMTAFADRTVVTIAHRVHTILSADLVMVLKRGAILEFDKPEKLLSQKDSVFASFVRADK
T1 sequence (P70673 whole entry partner): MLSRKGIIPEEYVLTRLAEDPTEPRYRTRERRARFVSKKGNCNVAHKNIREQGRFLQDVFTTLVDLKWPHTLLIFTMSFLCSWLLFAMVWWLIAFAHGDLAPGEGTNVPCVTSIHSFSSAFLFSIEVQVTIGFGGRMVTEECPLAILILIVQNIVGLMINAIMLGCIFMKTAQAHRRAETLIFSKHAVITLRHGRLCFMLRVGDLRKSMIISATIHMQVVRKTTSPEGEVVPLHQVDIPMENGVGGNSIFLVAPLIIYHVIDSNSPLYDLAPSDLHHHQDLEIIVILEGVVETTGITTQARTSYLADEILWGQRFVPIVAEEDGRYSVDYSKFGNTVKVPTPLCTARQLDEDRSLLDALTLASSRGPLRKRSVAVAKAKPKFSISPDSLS
In words: [3H]glibenclamide binding to ATP-dependent potassium channels of rat cerebral cortex. The conditions noted are these: 1 h; 300 nM; specific displacement of [3H]glibenclamide 0.1 nM; read-out: KATP binding (300 nM). On the procedure: The results shown reflect the specific affinity of the inventive compounds on the ATP-dependent (K^+ATP) potassium channels. The specific binding measured corresponds to the difference between the total binding and the non-specific binding determined in the presence of an excess of non-marked reference ligand (glibenclamide 1 μM). The inventive compounds were tested at doses between 3 and 300 nM: the higher the percentage measured, the stronger the affinity of the compound for the ATP-dependent potassium channels.
The binding test was carried out at CEREP (Celle L'Evescault, France (86)) according to a protocol inspired by Angel et al. (Angel and Bidet 1991): the potassium channels derive from a rat's cerebral cortex and the reference compound is [^3H]glibenclamide at 0.1 nM. The protocol consists of incubation at 22° C. for one hour.
For `CC(C)CC(NC(=O)Cc1ccc(OC(C)(C)C(=O)O)cc1)c1ccccc1N1CCCC1` (stereo not drawn) [Compound 16, 2-[4-[1-(3-methyl-1-(2-(1-pyrrolidinyl)phenyl)butyl)aminocarbonylmethyl]phenoxy]-2-methylpropanoic acid], the inhibition at 0.3 µM stood at 76%.
Take `CC(C)CC(NC(=O)Cc1ccc(OC(C)(C)C(=O)O)cc1)c1cc(Cl)ccc1N1CCCCC1` (stereo not drawn) [Compound 22, 2-[4-[1-(3-methyl-1-(2-(1-piperidinyl)-5-(chloro)phenyl)butyl)aminocarbonylmethyl]phenoxy]-2-methylpropanoic acid]: the inhibition at 0.3 µM was found to be 88%.
With `CC(C)CC(NC(=O)Cc1ccc(OC(C)(C)C(=O)O)cc1)c1ccccc1N1CCCCCC1` (stereo not drawn) [Compound 18, 2-[4-[1-(3-methyl-1-(2-(1-hexamethyleneimino)phenyl)butyl)aminocarbonylmethyl]phenoxy]-2-methylpropanoic acid], the inhibition at 0.3 µM turned out to be 69%.
For the compound `CC(C)CC(NC(=O)Cc1ccc(OC(C(=O)O)c2ccccc2)cc1)c1ccccc1N1CCCCC1` (stereo not drawn) [Compound 27, 2-[4-[1-(3-methyl-1-(2-(1-piperidinyl)phenyl)butyl)aminocarbonylmethyl]phenoxy]-2-phenylacetic acid], the inhibition at 0.3 µM was 95%.
`CC(C)CC(NC(=O)Cc1ccc(OC(C(=O)O)C(C)C)cc1)c1ccccc1N1CCCCC1` (stereo not drawn) [Compound 26, 2-[4-[1-(3-methyl-1-(2-(1-piperidinyl)phenyl)butyl)aminocarbonylmethyl]phenoxy]-3-methylbutanoic acid]: the inhibition at 0.3 µM came to 92%.
For `CC(C)(Oc1ccc(CC(=O)NC(c2ccccc2N2CCCCC2)C2CCCCC2)cc1)C(=O)O` (stereo not drawn) [Compound 6, 2-[4-[1-(1-cyclohexyl-1-(2-(1-piperidinyl)phenyl)methyl)aminocarbonylmethyl]phenoxy]-2-methylpropanoic acid], the inhibition at 0.3 µM was 47%.
Consider `CC(C)(Oc1ccc(CC(=O)NC(CCc2ccccc2)c2ccccc2N2CCCCC2)cc1)C(=O)O` (stereo not drawn) [Compound 51, 2-[4-[1-(3-phenyl-1-(2-(1-piperidinyl)phenyl)propyl)aminocarbonylmethyl]phenoxy]-2-methylpropanoic acid], for which the inhibition at 0.3 µM was 32%.
Turning to `CC(C)CC(NC(=O)Cc1ccc(OC(C)(C)C(=O)O)cc1)c1cc(Br)ccc1N1CCCCC1` (stereo not drawn) [Compound 37, 2-[4-[1-(3-methyl-1-(2-(1-piperidinyl)-5-(bromo)phenyl)butyl)aminocarbonylmethyl]phenoxy]-2-methylpropanoic acid], the inhibition at 0.3 µM was determined as 76%.
As for `CCCCC(c1ccccc1N1CCCCC1)N(CC(C)C)C(=O)Cc1ccc(OC(C)(C)C(=O)O)cc1` (stereo not drawn) [Compound 35, 2-[4-[N-isobutyl-N-(1-(2-(1-piperidinyl)phenyl)pentyl)aminocarbonylmethyl]phenoxy]-2-methylpropanoic acid], the inhibition at 0.3 µM was found to be 22%.
With `CCCCC(NC(=O)Cc1ccc(OC(C)(C)C(=O)O)cc1)c1ccccc1S(=O)(=O)c1ccccc1` (stereo not drawn) [Compound 41, 2-[4-[1-(1-(2-(phenylsulfonyl)phenyl)pentyl)aminocarbonylmethyl]phenoxy]-2-methylpropanoic acid], the inhibition at 0.3 µM was determined as 12%.
With `CC(C)CC(NC(=O)Cc1ccc(OC(C)(C)C(=O)O)cc1)c1cccc(N2CCCCC2)c1` (stereo not drawn) [Compound 8, 2-[4-[1-(3-methyl-1-(3-(1-piperidinyl)phenyl)butyl)aminocarbonylmethyl]phenoxy]-2-methylpropanoic acid], the inhibition at 0.3 µM stood at 48%.
Next, `CC(C)CC(NC(=O)Cc1cccc(OC(C)(C)C(=O)O)c1)c1ccccc1N1CCCCC1` (stereo not drawn) [Compound 29, 2-[3-[1-(3-methyl-1-(2-(1-piperidinyl)phenyl)butyl)aminocarbonylmethyl]phenoxy]-2-methylpropanoic acid]: 15%; `CC(C)(Oc1ccc(CC(=O)NC(c2ccccc2)c2ccccc2N2CCCCC2)cc1)C(=O)O` (stereo not drawn) [Compound 3, 2-[4-[1-(1-phenyl-1-(2-(1-piperidinyl)phenyl)methyl)aminocarbonylmethyl]phenoxy]-2-methylpropanoic acid]: 75%; `CCN(CC)c1ccccc1C(CC(C)C)NC(=O)Cc1ccc(OC(C)(C)C(=O)O)cc1` (stereo not drawn) [Compound 20, 2-[4-[1-(3-methyl-1-(2-(diethylamino)phenyl)butyl)aminocarbonylmethyl]phenoxy]-2-methylpropanoic acid]: 85%.
Consider `CC(C)(Oc1ccc(CC(=O)NC(Cc2ccccc2)c2ccccc2N2CCCCC2)cc1)C(=O)NS(C)(=O)=O` (stereo not drawn) [Compound 62, N-[methylsulfonyl]-2-[4-[1-(2-phenyl-1-(2-(1-piperidinyl)phenyl)ethyl)aminocarbonylmethyl]phenoxy]-2-methylpropanamide], for which the inhibition at 0.3 µM was found to be 46%.
As for `CCC(Oc1ccc(CC(=O)NC(CC(C)C)c2ccccc2N2CCCCC2)cc1)C(=O)O` (stereo not drawn) [Compound 25, 2-[4-[1-(3-methyl-1-(2-(1-piperidinyl)phenyl)butyl)aminocarbonylmethyl]phenoxy]butanoic acid], the inhibition at 0.3 µM turned out to be 91%.
Regarding `CCCCC(NC(=O)Cc1ccc(OC(C)(C)C(=O)O)cc1)c1ccccc1O` (stereo not drawn) [Compound 44, 2-[4-[1-(1-(2-(hydroxy)phenyl)pentyl)aminocarbonylmethyl]phenoxy]-2-methylpropanoic acid], the inhibition at 0.3 µM was found to be 48%.
Take `CC(C)CC(NC(=O)Cc1ccc(OC(C)(C)C(=O)O)c(Cl)c1)c1ccccc1N1CCCCC1` (stereo not drawn) [Compound 56, 2-[2-chloro-4-[1-(3-methyl-1-(2-(1-piperidinyl)phenyl)butyl)aminocarbonylmethyl]phenoxy]-2-methylpropanoic acid]: the inhibition at 0.3 µM was 49%.
Consider `CC(C)CC(NC(=O)Cc1ccc(OC(C)(C)C(=O)NS(C)(=O)=O)cc1)c1ccccc1N1CCCCC1` (stereo not drawn) [Compound 58, N-[methylsulfonyl]-2-[4-[1-(3-methyl-1-(2-(1-piperidinyl)phenyl)butyl)aminocarbonylmethyl]phenoxy]-2-methylpropanamide], for which the inhibition at 0.3 µM was found to be 94%.
With `CC(C)CC(NC(=O)Cc1ccc(OCC(=O)O)cc1)c1ccccc1N1CCCCC1` (stereo not drawn) [Compound 23, 2-[4-[1-(3-methyl-1-(2-(1-piperidinyl)phenyl)butyl)aminocarbonylmethyl]phenoxy]acetic acid], the inhibition at 0.3 µM worked out at 97%.
With `CC(C)CC(NC(=O)Cc1ccc(OC(C)C(=O)O)cc1)c1ccccc1N1CCCCC1` (stereo not drawn) [Compound 24, 2-[4-[1-(3-methyl-1-(2-(1-piperidinyl)phenyl)butyl)aminocarbonylmethyl]phenoxy]propanoic acid], the inhibition at 0.3 µM stood at 93%.
